Assay results reported in ChEMBL document CHEMBL1201862, “PubChem BioAssay data set” (2004).
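Following 48 hours of exposure in 96-well plates, responses at five concentrations were used to interpolate endpoints linearly. Abbreviation: GI50, concentration required for 50% inhibition of growth.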 The source made the active and inactive calls. Cut-off read from the data, not from the text of the source: active = GI50 up to about 1.1 µM and inactive = higher.

How the values were obtained:
Test in all cases: inhibition of tumour cell growth, NCI panel, 48 h
[1] = system: TK-10
[2] = system: CAKI-1
[3] = system: MDA-MB-435
[4] = system: UACC-257
[5] = system: 786-0
[6] = system: HCC 2998
[7] = system: U-251
[8] = system: SF-268
[9] = system: IGROV-1
[10] = system: M14
[11] = system: OVCAR-3
[12] = system: OVCAR-5
[13] = system: UACC-62
[14] = system: T47D
[15] = system: SNB-19
[16] = system: NCI-H23
[17] = system: HOP-92
[18] = system: DU-145
[19] = system: A549
[20] = system: CCRF-CEM

| Compound | GI50 [1] | GI50 [2] | GI50 [3] | GI50 [4] | GI50 [5] | GI50 [6] | GI50 [7] | GI50 [8] | GI50 [9] | GI50 [10] | GI50 [11] | GI50 [12] | GI50 [13] | GI50 [14] | GI50 [15] | GI50 [16] | GI50 [17] | GI50 [18] | GI50 [19] | GI50 [20] |
| --- | --- | --- | --- | --- | --- | --- | --- | --- | --- | --- | --- | --- | --- | --- | --- | --- | --- | --- | --- | --- |
| O=S(=O)(c1ccccc1)N1CCN(S(=O)(=O)c2ccccc2)c2ccccc21 | > 100 µM (inactive) | > 100 µM (inactive) | > 100 µM (inactive) | 75.5 µM (inactive) | > 100 µM (inactive) | > 100 µM (inactive) | > 100 µM (inactive) | > 100 µM (inactive) | > 100 µM (inactive) | 96.6 µM (inactive) | > 100 µM (inactive) | > 100 µM (inactive) | 64.7 µM (inactive) | > 100 µM (inactive) | > 100 µM (inactive) | 52.1 µM (inactive) | > 100 µM (inactive) | > 100 µM (inactive) | > 100 µM (inactive) | – |
| CCC(c1ccc(N(C)C)cc1)C1NC(=S)NC1=O (stereo not drawn) | 85.5 µM (inactive) | > 100 µM (inactive) | 34.4 µM (inactive) | > 100 µM (inactive) | > 100 µM (inactive) | > 100 µM (inactive) | 86.7 µM (inactive) | > 100 µM (inactive) | 58.3 µM (inactive) | 74.8 µM (inactive) | – | > 100 µM (inactive) | – | 78.3 µM (inactive) | > 100 µM (inactive) | > 100 µM (inactive) | > 100 µM (inactive) | > 100 µM (inactive) | > 100 µM (inactive) | 48.9 µM (inactive) |
| Cc1ccc(S(=O)(=O)N/C(=C\C=C\c2ccccc2)C(=O)C(C)(C)C)cc1 | > 100 µM (inactive) | > 100 µM (inactive) | > 100 µM (inactive) | 45.5 µM (inactive) | 27.5 µM (inactive) | > 100 µM (inactive) | 63.1 µM (inactive) | 46.2 µM (inactive) | 50.5 µM (inactive) | > 100 µM (inactive) | > 100 µM (inactive) | > 100 µM (inactive) | – | 85.1 µM (inactive) | 55.5 µM (inactive) | 59.4 µM (inactive) | 22.7 µM (inactive) | > 100 µM (inactive) | 46.5 µM (inactive) | > 100 µM (inactive) |
| CCc1cccc(CC)c1NC(=O)C(C#N)C1=C(Cl)C(=O)c2ccccc2C1=O (stereo not drawn) | 21.2 µM (inactive) | 15.6 µM (inactive) | 14.5 µM (inactive) | 17.4 µM (inactive) | 16.4 µM (inactive) | 16.9 µM (inactive) | 15.3 µM (inactive) | 16.6 µM (inactive) | 17.8 µM (inactive) | 16.8 µM (inactive) | 16.8 µM (inactive) | 18.8 µM (inactive) | 17.5 µM (inactive) | 3.79 µM (inactive) | 18.1 µM (inactive) | 13 µM (inactive) | 2.96 µM (inactive) | 16.8 µM (inactive) | 18.5 µM (inactive) | 1.33 µM (inactive) |
| O=C1c2cc3c(cc2CC12Cc1ccccc1C2)CCC3 | 42.5 µM (inactive) | 15.5 µM (inactive) | 28.2 µM (inactive) | 20.1 µM (inactive) | 21.1 µM (inactive) | 31 µM (inactive) | 37.6 µM (inactive) | 34.8 µM (inactive) | 38.2 µM (inactive) | 23.2 µM (inactive) | 41.8 µM (inactive) | 52.6 µM (inactive) | – | 45.9 µM (inactive) | > 100 µM (inactive) | 50.5 µM (inactive) | 23.9 µM (inactive) | 52 µM (inactive) | 44.4 µM (inactive) | 30.5 µM (inactive) |
| O=c1cc(CO)oc(C(O)c2ccccc2)c1O (stereo not drawn) | > 100 µM (inactive) | > 100 µM (inactive) | > 100 µM (inactive) | > 100 µM (inactive) | > 100 µM (inactive) | > 100 µM (inactive) | > 100 µM (inactive) | > 100 µM (inactive) | > 100 µM (inactive) | > 100 µM (inactive) | > 100 µM (inactive) | > 100 µM (inactive) | > 100 µM (inactive) | > 100 µM (inactive) | > 100 µM (inactive) | > 100 µM (inactive) | > 100 µM (inactive) | > 100 µM (inactive) | > 100 µM (inactive) | – |
| CCOC(=O)C(O)(CC1=NC(C(=O)OC)(C(=O)OC)C(c2cccc(C=O)c2)O1)C(=O)OCC (stereo not drawn) | > 100 µM (inactive) | > 100 µM (inactive) | > 100 µM (inactive) | > 100 µM (inactive) | > 100 µM (inactive) | > 100 µM (inactive) | > 100 µM (inactive) | – | > 100 µM (inactive) | > 100 µM (inactive) | > 100 µM (inactive) | > 100 µM (inactive) | > 100 µM (inactive) | > 100 µM (inactive) | > 100 µM (inactive) | > 100 µM (inactive) | > 100 µM (inactive) | > 100 µM (inactive) | > 100 µM (inactive) | > 100 µM (inactive) |
| COc1ccc(N2C(=O)C3c4[nH]c5ccccc5c4C4CCC(C(C)C)CC4C3C2=O)cc1 (stereo not drawn) | > 100 µM (inactive) | > 100 µM (inactive) | > 100 µM (inactive) | > 100 µM (inactive) | > 100 µM (inactive) | > 100 µM (inactive) | 38.8 µM (inactive) | > 100 µM (inactive) | > 100 µM (inactive) | > 100 µM (inactive) | > 100 µM (inactive) | > 100 µM (inactive) | > 100 µM (inactive) | > 100 µM (inactive) | > 100 µM (inactive) | > 100 µM (inactive) | > 100 µM (inactive) | > 100 µM (inactive) | > 100 µM (inactive) | 0.343 µM (active) |
| COc1c(-c2nc3ccc(N4CCN(C)CC4)nc3[nH]2)cc(OC)c2c1nc(CO)n2C | – | > 100 µM (inactive) | > 100 µM (inactive) | > 100 µM (inactive) | > 100 µM (inactive) | > 100 µM (inactive) | > 100 µM (inactive) | > 100 µM (inactive) | > 100 µM (inactive) | > 100 µM (inactive) | > 100 µM (inactive) | > 100 µM (inactive) | > 100 µM (inactive) | > 100 µM (inactive) | > 100 µM (inactive) | > 100 µM (inactive) | > 100 µM (inactive) | > 100 µM (inactive) | > 100 µM (inactive) | > 100 µM (inactive) |
| C=Cc1nc(C#N)c(N)o1 | > 100 µM (inactive) | > 100 µM (inactive) | > 100 µM (inactive) | > 100 µM (inactive) | > 100 µM (inactive) | > 100 µM (inactive) | > 100 µM (inactive) | > 100 µM (inactive) | > 100 µM (inactive) | > 100 µM (inactive) | > 100 µM (inactive) | > 100 µM (inactive) | – | > 100 µM (inactive) | > 100 µM (inactive) | > 100 µM (inactive) | > 100 µM (inactive) | > 100 µM (inactive) | > 100 µM (inactive) | > 100 µM (inactive) |
| CCc1cccc(C(C)C)c1NC(=O)C(=O)C1C(=O)Nc2ccccc2[S+]1[O-] (stereo not drawn) | > 100 µM (inactive) | > 100 µM (inactive) | > 100 µM (inactive) | > 100 µM (inactive) | > 100 µM (inactive) | > 100 µM (inactive) | > 100 µM (inactive) | > 100 µM (inactive) | 38.9 µM (inactive) | > 100 µM (inactive) | > 100 µM (inactive) | > 100 µM (inactive) | > 100 µM (inactive) | > 100 µM (inactive) | > 100 µM (inactive) | > 100 µM (inactive) | > 100 µM (inactive) | > 100 µM (inactive) | > 100 µM (inactive) | > 100 µM (inactive) |
| CC(=O)O[C@H]1C(=O)[C@@]2(C)[C@H]([C@H](OC(=O)c3ccccc3)[C@]3(O)C[C@H](OC(=O)[C@H](O)[C@@H](NC(=O)c4ccoc4)c4ccccc4)C(C)=C1C3(C)C)[C@]1(OC(C)=O)CO[C@@H]1C[C@@H]2O | 0.0861 µM (active) | – | 0.0071 µM (active) | 16 µM (inactive) | 0.18 µM (active) | 0.0216 µM (active) | 0.00791 µM (active) | 0.0325 µM (active) | 0.016 µM (active) | 0.09 µM (active) | < 0.01 µM (active) | 0.0256 µM (active) | 0.0776 µM (active) | 0.0307 µM (active) | 0.0946 µM (active) | 0.0261 µM (active) | 0.552 µM (active) | 0.0624 µM (active) | 0.0386 µM (active) | 0.0379 µM (active) |
| C/C1=C/C[C@@H](/C(C)=C/c2csc(C)n2)OC(=O)C[C@H](O)C(C)(C)C(=O)[C@H](C)[C@@H](O)[C@@H](C)CCC1 [EPOTHILONE D] | 0.000192 µM (active) | < 0.0001 µM (active) | < 0.0001 µM (active) | – | < 0.0001 µM (active) | < 0.0001 µM (active) | < 0.0001 µM (active) | < 0.0001 µM (active) | < 0.0001 µM (active) | < 0.0001 µM (active) | < 0.0001 µM (active) | < 0.0001 µM (active) | < 0.0001 µM (active) | < 0.0001 µM (active) | < 0.0001 µM (active) | < 0.0001 µM (active) | 0.141 µM (active) | < 0.0001 µM (active) | < 0.0001 µM (active) | < 0.0001 µM (active) |
| Cc1ccc2ccc3ccc(C)nc3c2n1 [NEOCUPROINE] | > 100 µM (inactive) | > 100 µM (inactive) | > 100 µM (inactive) | 1.86 µM (inactive) | > 29.7 µM (inactive) | 6.38 µM (inactive) | 7.31 µM (inactive) | > 87.9 µM (inactive) | 0.429 µM (active) | > 22.2 µM (inactive) | 0.344 µM (active) | – | 3.03 µM (inactive) | 1.06 µM (active) | > 100 µM (inactive) | 0.439 µM (active) | > 100 µM (inactive) | > 100 µM (inactive) | 7.11 µM (inactive) | 0.59 µM (active) |
